In patent publication US6242482A, “Prostaglandin compounds and derivatives thereof, compositions containing the same and method of using the same for the treatment of congestive heart failure” (priority 2000, dated 2001):

Key:
[1] = test system: mean arterial pressure and heart rate of anesthetized rats; assay: Systemic hemodynamic effects, intravenous, anesthetized rats (Example 9); format: in vivo, rat (male Wistar)
Description: Among other effects, lowering of the blood pressure inside the blood vessels is beneficial for the treatment of congestive heart failure by reducing the vascular resistance of the blood flow which substantially reduces the work load imposed on the heart. […] This study involved the use of male Wistar rats anaesthetized with thiopentone sodium ([…]®, 120 mg kg^-1 i.p.). The trachea was cannulated to facilitate breathing.

[2] = test system: U44069-induced pulmonary hypertension; assay: Effects on pulmonary vascular hypertension in sheep in vivo (Example 16); details: FIG. 5
From the text: Each sheep was monitored for measurement of pulmonary arterial pressure (PPA), left atrial pressure (PLA), systemic arterial pressure (PSA), cardiac output (CO), and heart rate (HR). Plasma samples were taken from the sheep subjects to measure drug levels within the blood throughout the experiment. The experiment began upon intravenously infusing a known pulmonary arterial hypertension inducer in a customary manner. The rate of inducement was adjusted to cause the pulmonary vascular resistance (PVR) to increase 3 to 4 times that of the initial baseline PVR. PVR is calculated as the difference between PPA and PLA, divided by the CO. After a stabilization period, a sample of a present prostaglandin compound was administered via a surgically prepared tracheotomy using a MEDICATOR® aerosol drug delivery system (Healthline Medical Inc., Baldwin Park, Calif.), or via intravenous infusion.

CCCCC[C@H](O)CC[C@@H]1[C@H]2Cc3cccc(OCC(=O)O)c3C[C@H]2C[C@H]1O [Compound X]
effective life of the fall in MAP ([1]; comparison of Compound 4 with Compound X (1 mg/kg i.v.)): 30 min
fall in MAP ([1]; i.v., Compound X 1 mg/kg, Compound 4 1-10 mg/kg, others 3-30 mg/kg): similar, maximal fall in MAP to the highest dose of Compound 4
PPA-PLA before administration (normalized) ([2]; 1 μg/kg aerosol over 15 minutes): about 11.25 cmH2 O
PPA-PLA after administration (normalized) ([2]; 1 μg/kg aerosol, 10 minutes after termination): about 5 cmH2 O
